Patent publication US9126945B2, “N-(3-carbamoylphenly)-1H-pyrazole-5-carboxamide derivatives and the use thereof for controlling animal pests” (BAYER INTELLECTUAL PROPERTY GMBH, priority 2011, dated 2015)

Key:
Boophilus microplus = Boophilus microplus test (BOOPMI injection); type: in vivo; conditions: for efficacy in % (laying of fertile eggs): 20 μg/animal, after 7 days; for % Activity dat: BOOPMI injection, 0.032 μg/animal, 7 dat
Method: Boophilus microplus Test (BOOPMI Injection)
(§1) Solvent: dimethyl sulphoxide
The active compound solution is injected into the abdomen (Boophilus microplus), and the animals are transferred into dishes and stored in a climate-controlled room. The activity is assessed by laying of fertile eggs.
The active compound solution is injected into the abdomen (Boophilus microplus), and the animals are transferred into dishes and stored in a climate-controlled room.
The activity is assessed by laying of fertile eggs. 100% means that none of the ticks has laid any fertile eggs.

Musca domestica = Musca domestica test (MUSCDO); type: in vivo; conditions: 100 ppm; after 2 days
Method: Musca domestica Test (MUSCDO)
as §1
Vessels containing a sponge treated with the active compound preparation of the desired concentration are populated with adult Musca domestica.
(§2) After 2 days, the kill in % is determined.
Vessels containing a sponge treated with the active compound formulation of the desired concentration are populated with adult Musca domestica.
After the desired period of time, the kill in % is determined.

Tetranychus urticae [1] = experiment: Tetranychus test, OP-resistant (TETRUR spray treatment), bean leaf discs; type: in vivo; conditions: for efficacy in %: application rate 500 g/ha, after 6 days
Method: Tetranychus Test, OP-Resistant (TETRUR Spray Treatment)
After a time of 6 days, the efficacy in % is determined.

Nilaparvata lugens = Nilaparvata lugens spray test (NILALU); type: in vivo
From the text: Nilaparvata lugens Spray Test (NILALU)
(§3) If the addition of ammonium salts or/and penetrants is required, these are in each case added in a concentration of 1000 ppm to the solution of the preparation.

Spodoptera frugiperda [2] = experiment: Spodoptera frugiperda test (SPODFR spray treatment), maize leaf discs; type: in vivo; conditions: for efficacy in %: application rate 500 g/ha, after 7 days
From the text: Spodoptera frugiperda Test (SPODFR Spray Treatment)

Myzus persicae = experiment: Myzus test (MYZUPE spray treatment); type: in vivo; conditions: for inhibition at 20 g/ha / inhibition at 100 g/ha: Myzus persicae, 144 h; for efficacy in %: application rate 500 g/ha, after 6 days
Method: Myzus test (Myzupe spray treatment)
After 6 days, the efficacy in % is determined.
Myzus Test (MYZUPE Spray Treatment)

Ctenocephalides felis = Ctenocephalides felis oral (CTECFE); type: in vivo; conditions: for kill in % (effect): 100 ppm, after 2 days; for inhibition at 0.8 ppm: Ctenocephalides felis, po, 48 h, CTECFE, 2 dat
Method: Ctenocephalides felis Oral (CTECFE)
Solvent: 1 part by weight of dimethyl sulphoxide
For the purpose of producing a suitable preparation of active compound, 10 mg of active compound are mixed with 0.5 ml of dimethyl sulphoxide. A portion of the concentrate is diluted with citrated cattle blood, and the desired concentration is prepared.
About 20 unfed adult fleas (Ctenocephalides felis) are placed into a chamber which is closed at the top and bottom with gauze. A metal cylinder whose bottom end is closed with parafilm is placed onto the chamber. The cylinder contains the blood/active compound preparation, which can be taken up by the fleas through the parafilm membrane. After 2 days, the kill in % is determined.
For the purpose of preparing an appropriate active compound formulation, 10 mg of active compound are mixed with 0.5 ml of dimethyl sulphoxide. A portion of the concentrate is diluted with citrated cattle blood, and the desired concentration is prepared.
About 20 unfed adult fleas (Ctenocephalides felis) are placed into a chamber which is closed at the top and bottom with gauze. A metal cylinder whose bottom end is closed with parafilm is placed onto the chamber. The cylinder contains the blood/active compound preparation, which can be taken up by the fleas through the parafilm membrane.

[3] = log P by HPLC, EEC Directive 79/831 Annex V.A8, method a); type: physicochemical; conditions: for logP: cell marked a): HPLC
Method: (§4) ^a) Note regarding the determination of the log P values and mass detection The determination of the given log P values was carried out in accordance with EEC Directive 79/831 Annex V.A8 by HPLC (High Performance Liquid Chromatography) on a reversed-phase column (C18). Agilent 1100 LC system; 50*4.6 Zorbax Eclipse Plus C18 1.8 micron; mobile phase A: acetonitrile (0.1% formic acid); mobile phase B: water (0.09% formic acid); linear gradient from 10% acetonitrile to 95% acetonitrile in 4.25 min, then 95% acetonitrile for a further 1.25 min; oven temperature 55° C.; flow rate: 2.0 ml/min Mass detection is via an Agilend MSD system.
as §4, with “mass detection:” for “mass detection”, “2.0 ml/min.” for “2.0 ml/min”

[4] = system: Boophilus microplus females of the SP-resistant Parkhurst strain; experiment: Boophilus microplus test (DIP); type: in vivo; conditions: for efficacy in % (laying of fertile eggs): 100 ppm, after 7 days; for inhibition at 20 ppm: Rhipicephalus microplus, 168 h, BOOPMI DIP, 7 dat
Method: Boophilus microplus Test (DIP)
Test animals: adult engorged Boophilus microplus females of the SP-resistant Parkhurst strain
as §1
10 mg of active compound are dissolved in 0.5 ml of dimethyl sulphoxide. For the purpose of preparing a suitable formulation, the active compound solution is diluted with water to the concentration desired in each case.
This active compound preparation is pipetted into tubes. 8-10 ticks are transferred into a further tube with holes. The tube is immersed into the active compound formulation, and all ticks are completely wetted. After the liquid has rum off, the ticks are transferred to filter discs in plastic dishes and kept in a climatized room. The activity is assessed after 7 days by laying of fertile eggs. Eggs whose fertility is not outwardly visible are stored in glass tubes in a climate-controlled cabinet until the larvae hatch. An efficacy of 100% means that none of the ticks has laid any fertile eggs.
10 mg of active compound are dissolved in 0.5 ml of dimethyl sulphoxide. For the purpose of preparing a suitable formulation, the active compound solution is diluted with water to the concentration desired in each case (in ppm).
This active compound preparation is pipetted into tubes. 8-10 ticks are transferred into a further tube with holes. The tube is immersed into the active compound formulation, and all ticks are completely wetted. After the liquid has run out, the ticks are transferred onto filter discs in plastic dishes and stored in a climate-controlled room.
The activity is assessed after the desired time by laying of fertile eggs. Eggs whose fertility is not evident from the outside are kept in glass tubes in a climate-controlled cabinet until the larvae have hatched. An effect of 100% means that none of the ticks has laid any fertile eggs.

Lucilia cuprina larvae = experiment: Lucilia cuprina test (LUCICU); type: in vivo; conditions: 100 ppm; after 2 days
Method: Lucilia cuprina Test (LUCICU)
as §1
Vessels containing horse meat treated with the active compound preparation of the desired concentration are populated with about 20 Lucilia cuprina larvae.
as §2

Phaedon cochleariae [5] = experiment: Phaedon cochleariae spray test (PHAECO), cabbage leaves, ppm; type: in vivo; conditions: 168 h, 7 dat
From the text: Phaedon cochleariae Spray Test (PHAECO)
(§5) Solvent: 7 parts by weight of dimethylformamide
(§6) Emulsifier: 2 parts by weight of alkylaryl polyglycol ether
as §3

Phaedon cochleariae [6] = experiment: Phaedon test (PHAECO spray treatment), Chinese cabbage leaf discs; conditions: for efficacy in %: application rate 500 g/ha, after 7 days
Spodoptera frugiperda [7] = experiment: Spodoptera frugiperda spray test (SPODFR), cotton leaves, ppm; type: in vivo; conditions: 168 h, 7 dat
From the text: Spodoptera frugiperda Spray Test (SPODFR)
as §5, §6, §3
Cotton leaves (Gossypium hirsutum) are sprayed with an active compound formulation of the desired concentration and populated with caterpillars of the armyworm (Spodoptera frugiperda).

Plutella xylostella = Plutella xylostella spray test (PLUTMA); type: in vivo; conditions: 168 h, 7 dat
From the text: Plutella xylostella Spray Test (PLUTMA)
as §5, §6, §3

Tetranychus urticae [8] = experiment: Tetranychus urticae spray test, OP-resistant (TETRUR), bean plants, ppm; type: in vivo; conditions: 168 h, 4 ppm, 7 dat
From the text: Tetranychus urticae Spray Test, OP-Resistant (TETRUR)
as §5, §6, §3

[9] = system: Frankliniella occidentalis; experiment: Frankliniella occidentalis spray test (FRANOC); type: in vivo; conditions: 168 h, 20 g/ha, 7 dat
From the text: Frankliniella occidentalis Spray Test (FRANOC)
as §3

Heliothis armigera = Heliothis armigera spray test (HELIAR); type: in vivo; conditions: Helicoverpa armigera, 168 h, 20 ppm, 7 dat
From the text: Heliothis armigera Spray Test (HELIAR)
as §5, §6, §3

[10] = Tetranychus urticae, foliar, 144 h, TETRUR, 6 dat
[11] = reversed-phase C18, acetonitrile/water with formic acid, gradient 10% to 95% acetonitrile

Row | SMILES | efficacy in % (laying of fertile eggs) (Boophilus microplus) [%] | % Activity dat (Boophilus microplus) [%] | efficacy in % (Tetranychus urticae [1]) [%] | efficacy in % (Spodoptera frugiperda [2]) [%] | inhibition at 20 g/ha (Myzus persicae; MYZUPE, 6 dat) [%] | kill in % (effect) (Ctenocephalides felis) [%] | inhibition at 0.8 ppm (Ctenocephalides felis) [%] | inhibition at 20 ppm [4] [%] | kill in % (efficacy) (Lucilia cuprina larvae) [%] | inhibition at 0.8 ppm (Phaedon cochleariae [5]) [%] | efficacy in % (Phaedon cochleariae [6]) [%] | inhibition at 4 ppm (Tetranychus urticae [8]) [%] | further results
1 | CCN(C(=O)c1c(C(F)(F)F)c(C(F)(F)C(F)(F)F)nn1C)c1ccc(Cl)c(C(=O)NC2(C#N)CC2)c1 [Example 6] | 100 | 70 | 100 | 100 | 70 | 100 | 80 | 100 | 100 | 100 | 100 |  | kill in % (efficacy) (Musca domestica): 100%; inhibition at 20 g/ha (Tetranychus urticae [1]; [10]): 100%; inhibition at 20 g/ha (Nilaparvata lugens; 168 h, 7 dat): 90%; efficacy in % (Myzus persicae): 100%; chromatographic logP ([3]; reversed-phase C18 HPLC column; cell marked a): HPLC, reversed-phase C18, acetonitrile/water with formic acid, gradient 10% to 95% acetonitrile): 3.36; efficacy in % (laying of fertile eggs) [4]: 100%
2 | CN(C(=O)c1c(C(F)(F)F)c(C(F)(F)C(F)(F)F)nn1C)c1ccc(Cl)c(C(=O)NC2CC2)c1 [Ik-132, reference compound] |  | 0 |  |  |  |  | 30 | 30 |  | 5 |  | 30 | inhibition at 100 g/ha (Myzus persicae; MYZUPE, 100 g/ha, 6 dat): 0%; inhibition at 20 ppm (Spodoptera frugiperda [7]): 50%; inhibition at 20 ppm (Plutella xylostella): 5%
3 | CCN(C(=O)c1c(C(F)(F)F)c(C(F)(F)C(F)(F)F)nn1C)c1ccc(Cl)c(C(=O)NC2CC2)c1 [Ik-136, reference compound] |  | 0 |  |  | 0 |  | 30 | 0 |  | 0 |  |  | inhibition at 20 g/ha (Tetranychus urticae [1]; [10]): 0%; inhibition at 20 g/ha (Nilaparvata lugens; 168 h, 7 dat): 0%
4 | C[C@H]1C[C@H]1NC(=O)c1cc(NC(=O)c2c(C(F)(F)F)c(C(F)(F)C(F)(F)F)nn2C)ccc1Cl [Ik-279, reference compound] |  |  |  |  | 0 |  |  |  |  |  |  | 0 | inhibition at 100 g/ha (Spodoptera frugiperda [2]; Spodoptera frugiperda, foliar, 168 h, SPODFR, 100 g/ha, 7 dat): 50%; inhibition at 20 g/ha (Phaedon cochleariae [6]; Phaedon cochleariae, in Brassica rapa, foliar, 168 h, read-out: % Activity dat): 0%
5 | Cn1nc(C(F)(F)F)c(C(F)(F)F)c1C(=O)Nc1ccc(Cl)c(C(=O)NC2(C#N)CC2)c1 [Example 9] | 100 |  | 100 | 100 |  | 100 |  |  | 100 |  | 100 |  | efficacy in % (Myzus persicae): 90%; logP [3, 11]: 2.85 ^a); efficacy in % (laying of fertile eggs) [4]: 100%
6 | Cn1nc(C(F)(F)C(F)(F)F)c(C(F)(F)F)c1C(=O)Nc1ccc(Cl)c(C(=O)NC2(C#N)CCC2)c1 [Example 7] | 100 |  | 100 | 83 |  | 80 |  |  | 100 |  | 100 |  | kill in % (efficacy) (Musca domestica): 100%; logP [3, 11]: 3.55 ^a)
7 | Cn1nc(C(F)(F)C(F)(F)F)c(C(F)(F)F)c1C(=O)Nc1ccc(Cl)c(C(=O)NC2CC2)c1 [Ik-1] |  |  |  |  |  |  | 0 |  |  |  |  | 40 | inhibition at 20 g/ha [9]: 0%; inhibition at 500 g/ha (Nilaparvata lugens; 168 h, 7 dat): 0%; inhibition at 20 ppm (Heliothis armigera): 45%; inhibition at 20 ppm (Spodoptera frugiperda [7]): 20%
8 | Cn1nc(C(F)(F)C(F)(F)F)c(C(F)(F)F)c1C(=O)Nc1ccc(Br)c(C(=O)NC2(C#N)CC2)c1 [Example 14] |  |  |  |  |  |  |  |  |  |  |  |  | inhibition at 100 g/ha (Tetranychus urticae [1]; Tetranychus urticae, foliar, 144 h, TETRUR, 100 g/ha, 6 dat): 100%; inhibition at 500 g/ha (Nilaparvata lugens; 96 h, 4 dat): 80%; % Activity dat (Myzus persicae; MYZUPE, 100 g/ha, 6 dat): 100 6 dat 100 6 dat %; inhibition at 100 g/ha (Myzus persicae; MYZUPE, 100 g/ha, 6 dat): 100%; chromatographic logP ([3]; reversed-phase HPLC column (C18); cell prints no method mark; Ex. 40 value equals the log P given under method a)): 3.31; inhibition at 4 ppm (Phaedon cochleariae [5]; 4 ppm): 100%
